The record followed here is ChEMBL document CHEMBL6087456 (J Med Chem, 2025).

Data set [1] has as its target T1, Dihydroorotate dehydrogenase (quinone), mitochondrial (Plasmodium falciparum (isolate 3D7), UniProt Q08210).
T1 sequence (Q08210 whole entry): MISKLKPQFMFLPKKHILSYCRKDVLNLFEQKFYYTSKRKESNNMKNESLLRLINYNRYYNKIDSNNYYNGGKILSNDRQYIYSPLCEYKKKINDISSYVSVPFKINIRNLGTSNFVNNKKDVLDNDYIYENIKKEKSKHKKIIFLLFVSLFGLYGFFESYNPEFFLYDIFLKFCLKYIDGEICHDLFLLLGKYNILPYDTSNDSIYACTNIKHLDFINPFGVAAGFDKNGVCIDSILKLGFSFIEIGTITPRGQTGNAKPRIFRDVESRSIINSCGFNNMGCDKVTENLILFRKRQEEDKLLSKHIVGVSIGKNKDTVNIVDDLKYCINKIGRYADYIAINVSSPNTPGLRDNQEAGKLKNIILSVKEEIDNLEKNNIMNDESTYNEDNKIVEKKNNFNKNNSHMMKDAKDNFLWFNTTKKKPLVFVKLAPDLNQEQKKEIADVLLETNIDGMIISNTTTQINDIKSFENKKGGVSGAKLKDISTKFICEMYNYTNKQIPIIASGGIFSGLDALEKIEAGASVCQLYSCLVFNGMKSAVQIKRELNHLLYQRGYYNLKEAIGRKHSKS
Kind of data set: Inhibition of N-terminal His6-tagged recombinant Plasmodium falciparum DHODH (158 to 569 residues) N-terminally truncated soluble domain extracted from Escherichia coli phage resistant BL21-DE3 using CoQD/DHA/DCIP as substrates.

Data set [2] has as its target Dihydroorotate dehydrogenase (quinone), mitochondrial (Homo sapiens, UniProt Q02127). Kind of data set: Inhibition of C-terminal His6-tagged recombinant human DHODH (29 to 395 residues) N-terminally truncated soluble domain extracted from Escherichia coli phage resistant BL21-DE3 using CoQD/DHA/DCIP as substrates.
The test system of another data set is Plasmodium falciparum. Kind of data set: Antiparasitic activity against asexual blood stage Plasmodium falciparum 3D7 incubated for 72 hrs by SYBR Green assay. The settings on record: 3D7, 72 h. Type of data set: functional, organism-based.
A short description of data set [3]: Kinetic solubility of compound at pH 6.5 measured after 30 mins by nephelometry. The settings on record: buffer; for solubility kinetic at 0.5 h: pH 6.5, read-out: Kinetic_solubility; for Kinetic_solubility: pH 6.5, 0.5 h. Type of data set: physicochemical.
A short description of data set [4]: Metabolic stability in human liver microsomes assessed as intrinsic clearance at 0.5 uM incubated for 60 mins in presence of NADPH by tandem quadrupole-Time of Flight MS. Type of data set: ADME, Microsome. To be noted: 1 h. Background: Microsomes from liver hold many membrane-bound enzymes, among them those of drug oxidation.

Converted amounts (≈) assume the structure as drawn.

Sequence of Dihydroorotate dehydrogenase (quinone), mitochondrial (Homo sapiens, UniProt Q02127) (Q02127 whole entry, the tested form may be a part): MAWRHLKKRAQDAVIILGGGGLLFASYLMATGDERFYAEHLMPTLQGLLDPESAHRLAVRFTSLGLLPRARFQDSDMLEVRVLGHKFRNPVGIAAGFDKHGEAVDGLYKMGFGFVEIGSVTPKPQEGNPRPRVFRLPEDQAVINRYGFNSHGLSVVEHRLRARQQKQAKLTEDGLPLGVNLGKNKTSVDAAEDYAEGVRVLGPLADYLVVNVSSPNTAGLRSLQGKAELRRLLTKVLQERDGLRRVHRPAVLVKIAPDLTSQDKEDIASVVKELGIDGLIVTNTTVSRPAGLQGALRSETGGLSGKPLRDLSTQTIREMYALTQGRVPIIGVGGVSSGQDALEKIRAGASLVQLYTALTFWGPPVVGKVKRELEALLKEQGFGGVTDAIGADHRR

What is called IC50 is the concentration at which inhibition is half-maximal. What is called EC50 is the concentration needed to bring the measured effect to its halfway point. `Cn1nc2c(=O)n(C3CC3)cnc2c1[C@](O)(c1ccc(C(F)(F)F)c(Cl)c1)C(F)(F)F`: the IC50 in data set [1] worked out at 0.005 µM; in data set [2], 6.5 µM. The EC50 with Plasmodium falciparum turned out to be 77 µM. For the same compound, the solubility kinetic at 0.5 h in data set [3] worked out at 20 µM (≈ 9.34 µg/mL). The “intrinsic clearance (CLint)” value in data set [4] is under 3 µL/min/mg.

`CCn1ccc2c(Cc3ccc(C(F)(F)F)nc3)n(C)nc2c1=O`: the IC50 in data set [1] was 1.5 µM; in data set [2] it was over 30 µM. The compound further showed a concentration giving a half-maximal response (EC50) in the data set with Plasmodium falciparum of 0.58 µM. In data set [3], the Kinetic_solubility is over 300 µM. In addition, the “intrinsic clearance (CLint)” value in data set [4] is under 7 µL/min/mg.

Turning to `Cn1nc2c(=O)n(C3CC3)ccc2c1[C@](O)(c1ccc(C(F)(F)F)c(C#N)c1)C1CC1`, the IC50 is 0.018 µM in data set [1] and over 30 µM in data set [2]. Besides, it took 0.001 µM to reach a half-maximal effect with Plasmodium falciparum (EC50). Also, in data set [3], the Kinetic_solubility is under 5 µM. In addition, in data set [4], the “intrinsic clearance (CLint)” value is under 3 µL/min/mg.

Turning to `CC[C@@](O)(c1ccc(C(F)(F)F)c(Cl)c1)c1c2cnn(C3CC3)c(=O)c2nn1C`, the concentration for half-maximal inhibition (IC50) in data set [1] stood at 0.006 µM. For the same compound, the solubility kinetic at 0.5 h in data set [3] was 6.25 µM (≈ 2.67 µg/mL). Also, the “intrinsic clearance (CLint)” value in data set [4] was under 3 µL/min/mg.

As for `CCn1cc(C2CC2)c2c(CN3CCC(F)(F)C(C)(C)C3)n(C)nc2c1=O`, the IC50 in data set [1] is 0.021 µM; in data set [2], over 30 µM. Besides, in the data set with Plasmodium falciparum, the EC50 worked out at 0.015 µM. The solubility kinetic at 0.5 h in data set [3] came to 12.5 µM (≈ 4.73 µg/mL). Besides, the “intrinsic clearance (CLint)” value in data set [4] amounted to 160 µL/min/mg.

`CC[C@@](O)(c1ccc(C(F)(F)F)c(C#N)c1)c1c2ccn(C3CC3)c(=O)c2nn1C`: the IC50 in data set [1] was 0.019 µM; in data set [2], 0.96 µM. The compound also gave a concentration giving a half-maximal response (EC50) with Plasmodium falciparum of 0.001 µM. The solubility kinetic at 0.5 h in data set [3] worked out at 20 µM (≈ 8.33 µg/mL). Besides, the “intrinsic clearance (CLint)” value in data set [4] was under 3 µL/min/mg.

As to `CCn1cc(C)c2c(Cc3ccc(C(F)(F)F)nc3)n(C)nc2c1=O`, the IC50 in data set [1] is 0.07 µM; in data set [2], over 100 µM. Moreover, a half-maximal effect with Plasmodium falciparum (EC50) was put at 0.044 µM. In data set [3], the Kinetic_solubility was over 280 µM. Also, the “intrinsic clearance (CLint)” value in data set [4] is under 7 µL/min/mg.

As to `Cn1nc2c(=O)n(C3CC3)cc(C3CC3)c2c1Cc1ccc(C(F)(F)F)nc1`, the half-inhibitory concentration (IC50) was 0.043 µM in data set [1] and 17 µM in data set [2]. Besides, the concentration giving a half-maximal response (EC50) in the data set with Plasmodium falciparum was found to be 0.032 µM. The solubility kinetic at 0.5 h in data set [3] was found to be 65 µM (≈ 25.2 µg/mL). In addition, the “intrinsic clearance (CLint)” value in data set [4] is under 7 µL/min/mg.

Consider `CCn1cc(C2CC2)c2c(Cc3ccc(C(F)(F)F)c(C#N)c3)n(C)nc2c1=O`, for which the half-maximal inhibitory concentration (IC50) in data set [1] turned out to be 0.015 µM; in data set [2], 11 µM. Further, the EC50 with Plasmodium falciparum is 0.004 µM. Moreover, the solubility kinetic at 0.5 h in data set [3] was found to be 15 µM (≈ 6.01 µg/mL). In addition, the “intrinsic clearance (CLint)” value in data set [4] amounted to 64 µL/min/mg.

Consider `Cn1nc2c(=O)n(C3CC3)ncc2c1[C@](O)(c1ccc(C(F)(F)F)c(C#N)c1)C(F)(F)F`, for which the half-maximal inhibitory concentration (IC50) in data set [1] was 0.019 µM; in data set [2], over 30 µM. The compound further displayed an EC50 in the data set with Plasmodium falciparum of 0.001 µM. Further, in data set [3], the solubility kinetic at 0.5 h worked out at 20 µM (≈ 9.15 µg/mL). Besides, in data set [4], the “intrinsic clearance (CLint)” value is under 3 µL/min/mg.

Regarding `Cn1nc2c(=O)n(C3CC3)cnc2c1[C@](O)(c1ccc(C(F)(F)F)c(C#N)c1)C(F)(F)F`, the figures for the IC50 in data set [1] and in data set [2] were 0.014 µM and 18 µM, respectively. For the same compound, the solubility kinetic at 0.5 h in data set [3] came out at 40 µM (≈ 18.3 µg/mL). In addition, in data set [4], the “intrinsic clearance (CLint)” value is under 3 µL/min/mg.

On to `CCn1cc(Cl)c2c(Cc3ccc(N4CCCCC4)nc3)n(C)nc2c1=O`, for which the 50% inhibitory concentration (IC50) in data set [1] came to 0.017 µM; in data set [2] it was 5.4 µM. In the data set with Plasmodium falciparum, the midpoint of the response, the EC50, lay at 0.062 µM. For the same compound, the solubility kinetic at 0.5 h in data set [3] stood at 40 µM (≈ 15.4 µg/mL). Moreover, the “intrinsic clearance (CLint)” value in data set [4] amounted to 160 µL/min/mg.

As for `Cc1cn(C2CC2)c(=O)c2nn(C)c(Cc3ccc(C(F)(F)F)nc3)c12`, the IC50 in data set [1] amounted to 0.089 µM; in data set [2], 52 µM. In addition, a half-maximal response in the data set with Plasmodium falciparum (EC50) required 0.045 µM. Moreover, the solubility kinetic at 0.5 h in data set [3] turned out to be 130 µM (≈ 47.1 µg/mL). Further, in data set [4], the “intrinsic clearance (CLint)” value is under 7 µL/min/mg.

For the compound `CCn1cc(C2CC2)c2c(Cc3ccc(C(F)(F)F)c(F)c3)n(C)nc2c1=O`, the IC50 in data set [1] turned out to be 0.014 µM; in data set [2] it was 14 µM. The half-maximal effective concentration (EC50) in the data set on Plasmodium falciparum came to 0.008 µM. In data set [3], the solubility kinetic at 0.5 h stood at 16 µM (≈ 6.29 µg/mL). Moreover, the “intrinsic clearance (CLint)” value in data set [4] worked out at 52 µL/min/mg.

Take `CCn1cc(C2CC2)c2c(CN3CCC4(CCC4)CC3)n(C)nc2c1=O`: the concentration for half-maximal inhibition (IC50) in data set [1] was determined as 0.008 µM; in data set [2], 22 µM. For the same compound, the EC50 in the data set on Plasmodium falciparum was 0.015 µM. The solubility kinetic at 0.5 h in data set [3] was 80 µM (≈ 28.4 µg/mL). Further, the “intrinsic clearance (CLint)” value in data set [4] is 130 µL/min/mg.

Regarding `Cn1nc2c(=O)n(C3CC3)ccc2c1Cc1ccc(C(F)(F)F)c(C#N)c1`, the IC50 was 0.14 µM in data set [1] and over 100 µM in data set [2]. Also, in the data set with Plasmodium falciparum, the 50% effective concentration (EC50) is 0.081 µM. For the same compound, the solubility kinetic at 0.5 h in data set [3] was determined as 67 µM (≈ 24.9 µg/mL). Also, the “intrinsic clearance (CLint)” value in data set [4] is under 7 µL/min/mg.

On to `CCn1cc(C2CC2)c2c(Cc3cnc(C(F)(F)F)c(OC)c3)n(C)nc2c1=O`, for which the results for the half-inhibitory concentration (IC50) in data set [1] and in data set [2] were 0.057 µM and over 100 µM, respectively. For the same compound, the 50% effective concentration (EC50) in the data set on Plasmodium falciparum stood at 0.017 µM. Also, the solubility kinetic at 0.5 h in data set [3] worked out at 60 µM (≈ 24.4 µg/mL). Moreover, in data set [4], the “intrinsic clearance (CLint)” value amounted to 25 µL/min/mg.

On to `CC(C)n1ccc2c(Cc3ccc(C(F)(F)F)nc3)n(C)nc2c1=O`, for which the IC50 in data set [1] is 14 µM; in data set [2] it was over 100 µM. In the data set on Plasmodium falciparum, the response was half-maximal at 6.6 µM (EC50).

On to `Cn1nc2c(=O)n(C3CC3)ncc2c1[C@](O)(c1ccc(C(F)(F)F)c(Cl)c1)C(F)(F)F`, for which the 50% inhibitory concentration (IC50) came to 0.009 µM in data set [1] and 22 µM in data set [2]. Moreover, the solubility kinetic at 0.5 h in data set [3] was determined as 5 µM (≈ 2.33 µg/mL). For the same compound, in data set [4], the “intrinsic clearance (CLint)” value is under 3 µL/min/mg.

Take `CC[C@@](N)(c1ccc(C(F)(F)F)c(Cl)c1)c1c2ncn(C3CC3)c(=O)c2nn1C`: the 50% inhibitory concentration (IC50) in data set [1] came to 0.009 µM. The midpoint of the response with Plasmodium falciparum, the EC50, lay at 0.001 µM. Besides, the Kinetic_solubility in data set [3] is over 100 µM. Besides, in data set [4], the “intrinsic clearance (CLint)” value is under 3 µL/min/mg.

For `CCn1cc(C2CC2)c2c([C@H](N)c3ccc(C(F)(F)F)nc3)n(C)nc2c1=O`, the figures for the half-inhibitory concentration (IC50) in data set [1] and in data set [2] were 0.18 µM and over 100 µM, respectively. In the data set on Plasmodium falciparum, this compound had a 50% effective concentration (EC50) of 0.027 µM. In addition, in data set [3], the Kinetic_solubility was over 320 µM. Also, the “intrinsic clearance (CLint)” value in data set [4] is 3.8 µL/min/mg.

With `Cn1nc2c(=O)n(C3CC3)ccc2c1Cc1ccc(C(F)(F)F)nc1`, the IC50 in data set [1] is 0.91 µM; in data set [2], over 100 µM. Also, in the data set with Plasmodium falciparum, the EC50 worked out at 0.59 µM.

On to `CCn1cc(Cl)c2c(Cc3ccc(N4CCOCC4)nc3)n(C)nc2c1=O`, for which the half-inhibitory concentration (IC50) was 0.19 µM in data set [1] and over 100 µM in data set [2]. In the data set on Plasmodium falciparum, this compound displayed an EC50 of 0.37 µM. In data set [3], the solubility kinetic at 0.5 h was 65 µM (≈ 25.2 µg/mL). Besides, the “intrinsic clearance (CLint)” value in data set [4] was 15 µL/min/mg.

Turning to `CCn1ccc2c([C@@](O)(CC)c3cnc(C(F)(F)F)c(Cl)c3)n(C)nc2c1=O`, the IC50 in data set [1] worked out at 0.027 µM. Further, in data set [3], the solubility kinetic at 0.5 h is 40 µM (≈ 16.6 µg/mL). For the same compound, the “intrinsic clearance (CLint)” value in data set [4] worked out at 9.3 µL/min/mg.

On to `CC[C@@](O)(c1ccc(F)c(Cl)c1)c1c2ccn(C3CC3)c(=O)c2nn1C`, for which the IC50 in data set [1] worked out at 0.007 µM; in data set [2], 0.7 µM. Besides, the concentration giving a half-maximal response (EC50) with Plasmodium falciparum stood at 0.001 µM. Further, the solubility kinetic at 0.5 h in data set [3] amounted to 40 µM (≈ 15 µg/mL). Moreover, the “intrinsic clearance (CLint)” value in data set [4] amounted to 8.4 µL/min/mg.
